Assay results published in patent US7816397B2, “Phenylcarboxylic acid derivatives and use thereof for the treatment of diabetes” (Merck Patent GmbH, priority 2004, dated 2010).

Experiments:
INS-1 cells = assay: Insulin secretion test on INS-1 cells; type: cell-based; details: Rattus norvegicus, INS1, test compound concentration 10^−5 M, read-out: INS-1 Test concentration 10^−5 M % (Sec INS, percentage of insulin secretion)
Source text: Insulin Secretion Test on INS-1 Cells
According to the method described in Endocrinology, 1992 vol. 130 (1) pp. 167-178
Sec INS corresponds to the percentage of insulin secretion.
C corresponds to the concentration of test compound according to the invention.

[1] = test system: isolated islets of Langerhans; assay: Insulin secretion test on islets isolated from rats (static incubation, stimulation factor); type: cell-based; details: 90 minutes incubation, glucose 2.8 mM or 8 mM (not given), stimulates if factor >= 130%; for Isolated islets 10^−5 M (stimulation factor of insulin secretion): compound 10^−5 M; for Isolated islets 10^−7 M (stimulation factor of insulin secretion): compound 10^−7 M
Protocol: Insulin Secretion Test on Islets Isolated from Rats
The effect of the compounds on insulin secretion as a function of the glucose concentration was tested, in vitro, in isolated islets of Langerhans in static incubation.
The islets Langerhans obtained by digestion of exocrine pancreatic tissue with collagenase, followed by purification on a Ficoll gradient, are incubated for 90 minutes in the presence of two concentrations of glucose (2.8 mM or 8 mM), in the presence or absence of the chemical compound. The insulin secretion is assayed by RIA in the incubation medium.
The potential of the various chemical compounds to stimulate insulin secretion is estimated by calculating the stimulation factor*.
A compound stimulates insulin secretion if this factor is greater than or equal to 130% for a given dose of glucose.
G=insulin secretion (pmol/min. islet) in the presence of glucose alone
G+P=insulin secretion (pmol/min. islet) in the presence of the same concentration of glucose and of the test compound.

n0-STZ/sucrose rats = assay: In vivo oral glucose tolerance test (OGTT) after daily treatment for 7 days; parameters: species or system Rats Wistar; details: 100 mg/kg/day for 7 days
Protocol: To evaluate the effect of 2-{2-[4-(4-chlorobenzenesulfonylamino)phenyl]-ethyl}benzoic acid (compound 522) on the glucose tolerance of n0-STZ/sucrose rats, after a daily treatment for 7 days.
Rats Wistar (origin: Charles River, France), which received an injection of streptozotocin (100 mg/kg i.v.) on the day of birth. On their arrival at the Research Centre, at seven weeks old:
• 9 rats were placed on a standard diet (A04, SAFE). • 19 rats were placed on a sucrose-rich diet (58% sucrose, SAFE).
After 2 months on the diet, the rats on the sucrose diet were divided randomly into 2 subgroups (control diabetic, treated diabetic).
The three groups were then treated daily for 7 days, with excipient (0.5% methylcellulose solution) for the control group (healthy animals) and the diabetic control group, or with product (compound 522, 100 mg/kg/day) for the third group.
Glucose Tolerance Test (OGTT):
After treatment for 7 days, the animals were fasted for 3 hours before the start of the test. Samples were taken from the tail of the conscious rats. The first blood sample was taken 10 minutes before the administration of glucose (2 g/kgbody weight/oral route). Blood was then taken 10, 20, 30, 45, 60, 90 and 120 minutes after the administration of glucose.
The glucose tolerance was evaluated by means of the ΔAUC glc, which represents the cumulative increase in glycaemia above the basal value over the 120 minutes of the test.
The insulin response to glucose was estimated by means of the ΔAUC Ins, which represents the cumulative increase in insulinaemia above the basal value over the 120 minutes of the test.

| Structure (SMILES) | activity at 10 µM (INS-1 cells) | also measured |
| --- | --- | --- |
| Cc1ccc(S(=O)(=O)Nc2ccccc2CCCc2ccccc2C(=O)O)c(C)c1 [Compound 109] | 162% |  |
| O=C(O)c1ccccc1CCCc1ccccc1NS(=O)(=O)c1ccc2ccccc2c1 [Compound 117] | 175% |  |
| Cc1cc(C)c(S(=O)(=O)Nc2ccccc2CCCc2ccccc2C(=O)O)c(C)c1 [Compound 121] | 184% |  |
| Cc1ccc(S(=O)(=O)Nc2ccccc2CCCCCc2ccccc2C(=O)O)cc1 [Compound 144] | 191% |  |
| Cc1ccc(S(=O)(=O)Nc2ccccc2CCCCCc2ccccc2C(=O)O)c(C)c1 [Compound 151] | 190% |  |
| O=C(O)c1ccccc1CCCCCc1ccccc1NS(=O)(=O)c1ccccc1F [Compound 152] | 202% |  |
| CCS(=O)(=O)Nc1ccccc1CCCCCc1ccccc1C(=O)O [Compound 157] | 203% |  |
| COc1cc(C)c(S(=O)(=O)Nc2ccccc2CCCCCc2ccccc2C(=O)O)c(C)c1C [Compound 158] | 182% | Isolated islets 10^−5 M (stimulation factor of insulin secretion) [1]: +166%; Isolated islets 10^−7 M (stimulation factor of insulin secretion) [1]: +135% |
| CN(C)c1cccc2c(S(=O)(=O)Nc3ccccc3CCCCCc3ccccc3C(=O)O)cccc12 [Compound 159] | 269% |  |
| CC(C)c1ccc(S(=O)(=O)Nc2ccccc2CCCCCc2ccccc2C(=O)O)cc1 [Compound 164] | 180% |  |
| O=C(O)c1ccccc1CCCCCc1ccccc1NS(=O)(=O)c1cccc2cccnc12 [Compound 168] | 256% | Isolated islets 10^−5 M (stimulation factor of insulin secretion) [1]: +236%; Isolated islets 10^−7 M (stimulation factor of insulin secretion) [1]: +169% |
| O=C(O)c1ccccc1CCc1ccc(NS(=O)(=O)c2ccc(Cl)cc2)cc1 [Compound 522, 2-{2-[4-(4-chlorobenzenesulfonylamino)phenyl]-ethyl}benzoic acid] |  | ΔAUC insulin, treated versus diabetic controls (in words) (n0-STZ/sucrose rats; OGTT 120 minutes): unchanged; ΔAUC glucose down by, treated rats compared with the diabetic controls (n0-STZ/sucrose rats; OGTT glucose 2 g/kg oral, 120 minutes, significant p<0.05): 21%; ΔAUC insulin (cumulative increase in insulinaemia above the basal value) (n0-STZ/sucrose rats; treated rats, OGTT 120 minutes, diabetic controls 11417+/−1440): 14494 ± 665 pmol·min; ΔAUC glucose (cumulative increase in glycaemia above the basal value) (n0-STZ/sucrose rats; treated rats, OGTT 120 minutes, diabetic controls 33306+/−1403): 26438 ± 2255 mg·min/dL |
| O=C(O)c1ccccc1CCc1ccccc1NS(=O)(=O)/C=C/c1ccccc1 [Compound 639] | 144% |  |
| CCCCc1ccc(S(=O)(=O)Nc2ccccc2CCc2ccccc2C(=O)O)cc1 [Compound 642] | 140% |  |
| O=C(O)c1ccccc1CCc1ccccc1NS(=O)(=O)c1ccc(S(=O)(=O)c2ccccc2)s1 [Compound 650] | 139% |  |
| CCC(C)(C)c1ccc(S(=O)(=O)Nc2ccccc2CCc2ccccc2C(=O)O)cc1 [Compound 654] | 148% |  |
| N#Cc1ccccc1S(=O)(=O)Nc1ccccc1CCc1ccccc1C(=O)O [Compound 655] | 147% |  |
